The results in this text go back to ChEMBL document CHEMBL4513149, “CO-ADD screening of MMV (CH) - MMV compounds” (2021).

Usually CC50 stands for the concentration giving 50% cytotoxicity. Read a high CC50 as lower toxicity to the cells.

One assay concerns HEK293. Put plainly: cells. Format: functional. The note with it: Homo sapiens, ATCC CRL1573, HEK293; ASSAY_TEST Inhibition of Cell Viability; detection method Resazurin; Fluorescence (ex560/em590); MEDIA DMEM with 10% FBS; plate type 384well; TC; CORNING #3712; time 18 hr. (In general: The colour change of resazurin is a common sign of viable cells or microbes.)
The subject of a further assay is Staphylococcus aureus. The experiment in a line: microbe, parasite or virus in culture. The note with it: ATCC 43300, 18 h, ASSAY_TEST Inhibition of Bacterial Growth, detection method Absorption (OD600), MEDIA CAMHB, plate type 384well, NBS, CORNING #3640.
Another assay has as its system Escherichia coli. The experiment in a line: microbe, parasite or virus in culture. The note with it: ATCC 25922, 18 h, ASSAY_TEST Inhibition of Bacterial Growth, detection method Absorption (OD600), MEDIA CAMHB, plate type 384well, NBS, CORNING #3640.
A further assay deals with Klebsiella pneumoniae. Put plainly: microbe, parasite or virus in culture. The note with it: ATCC 700603, 18 h, ASSAY_TEST Inhibition of Bacterial Growth, detection method Absorption (OD600), MEDIA CAMHB, plate type 384well, NBS, CORNING #3640.
A further assay concerns Pseudomonas aeruginosa. Put plainly: microbe, parasite or virus in culture. The note with it: ATCC 27853, 18 h, ASSAY_TEST Inhibition of Bacterial Growth, detection method Absorption (OD600), MEDIA CAMHB, plate type 384well, NBS, CORNING #3640.
Another assay deals with Acinetobacter baumannii. Put plainly: microbe, parasite or virus in culture. The note with it: ATCC 19606, 18 h, ASSAY_TEST Inhibition of Bacterial Growth, detection method Absorption (OD600), MEDIA CAMHB, plate type 384well, NBS, CORNING #3640.
The test system of the next assay is Candida albicans. The experiment in a line: microbe, parasite or virus in culture. The note with it: ATCC 90028, ASSAY_TEST Inhibition of Fungal Growth, detection method Absorption (OD530), plate type 384well, NBS, CORNING #3640.

Structures are written as SMILES. Converted amounts (≈) assume the structure as drawn.

Description for Acinetobacter baumannii: Antibacterial activity against Acinetobacter baumannii ATCC 19606 (CO-ADD:GN_034); MIC in CAMBH media using NBS plates, by OD600
Description for Candida albicans: Antifungal activity against Candida albicans ATCC 90028 (CO-ADD:FG_001); MIC in YNB media using NBS plates, by OD630
Description for Cryptococcus neoformans: Antifungal activity against Cryptococcus neoformans H99 ATCC 208821 (CO-ADD:FG_002); MIC in YNB media using NBS plates, by Resazurin OD(600-570)
Description for Escherichia coli: Antibacterial activity against Escherichia coli ATCC 25922 (CO-ADD:GN_001); MIC in CAMBH media using NBS plates, by OD(600)
Description for Klebsiella pneumoniae: Antibacterial activity against Klebsiella pneumoniae MDR ATCC 70063 (CO-ADD:GN_003); MIC in CAMBH media using NBS plates, by OD(600)
Description for Pseudomonas aeruginosa: Antibacterial activity against Pseudomonas aeruginosa ATCC 27853 (CO-ADD:GN_042); MIC in CAMBH media using NBS plates, by OD(600)
Description for Staphylococcus aureus: Antibacterial activity against Staphylococcus aureus MRSA ATCC 43300 (CO-ADD:GP_020); MIC in CAMBH media, using NBS plates, by OD(600)

In the assay with HEK293, `O=C(Nc1nnc(-c2ccc(Cl)cc2)o1)c1cccc(C(F)(F)F)c1` had a CC50 of more than 10 µM. For the same compound, the MIC in the assay on Cryptococcus neoformans, in the assay on Staphylococcus aureus, in the assay on Escherichia coli, against Klebsiella pneumoniae, against Pseudomonas aeruginosa and against Acinetobacter baumannii was more than 10 µM throughout. The MIC against Candida albicans is more than 10 µM.

Turning to `O=C(COc1cccc(F)c1)Nc1nc(-c2ccccn2)cs1`, the CC50 in the assay with HEK293 is more than 10 µM. Moreover, the MIC against Cryptococcus neoformans, against Staphylococcus aureus, in the assay on Escherichia coli, with Klebsiella pneumoniae, in the assay on Pseudomonas aeruginosa and against Acinetobacter baumannii was more than 10 µM throughout. The compound further came in with an MIC against Candida albicans of more than 10 µM.

Compound `Brc1cncc(-c2cc(NCCCn3ccnc3)nc(-c3ccccc3)n2)c1` returned a CC50 in the assay with HEK293 of more than 10 µM. Besides, the MIC against Cryptococcus neoformans, in the assay with Staphylococcus aureus, with Escherichia coli, in the assay with Klebsiella pneumoniae, against Pseudomonas aeruginosa and against Acinetobacter baumannii was more than 10 µM throughout. The same compound registered an MIC with Candida albicans of more than 10 µM.

Regarding `CCc1c(C)nc(-n2nc(C)cc2NC(=O)c2ccccc2SC)[nH]c1=O`, in the assay with HEK293, the CC50 was more than 10 µM. Moreover, the MIC with Cryptococcus neoformans, in the assay on Staphylococcus aureus, with Escherichia coli, in the assay on Klebsiella pneumoniae, in the assay on Pseudomonas aeruginosa and against Acinetobacter baumannii was more than 10 µM throughout. Also, the MIC with Candida albicans was more than 10 µM.

Take `O=C(Nc1nnc(-c2ccc(Cl)s2)o1)c1ccc(Cl)s1`: the CC50 in the assay on HEK293 was more than 10 µM. For the same compound, the MIC in the assay on Cryptococcus neoformans is more than 10 µM; in the assay with Staphylococcus aureus, 10 µM (≈ 3.46 µg/mL); with Escherichia coli, more than 10 µM; in the assay on Klebsiella pneumoniae, more than 10 µM; against Pseudomonas aeruginosa it was more than 10 µM; in the assay on Acinetobacter baumannii, more than 10 µM. The same compound displayed an MIC in the assay with Candida albicans of more than 10 µM.

On to `COc1cccc(-c2nc3c(N4CCCC4)cccc3n2CC2CCCN2)n1` (configuration not stated), for which the CC50 with HEK293 is more than 10 µM. Besides, the MIC against Cryptococcus neoformans is more than 10 µM; in the assay with Staphylococcus aureus, 10 µM (≈ 3.77 µg/mL); against Escherichia coli, more than 10 µM; in the assay on Klebsiella pneumoniae, more than 10 µM; against Pseudomonas aeruginosa, more than 10 µM; with Acinetobacter baumannii it was more than 10 µM. The MIC against Candida albicans was more than 10 µM.

For the compound `O=C(c1ccco1)N(CCCn1ccnc1)c1nc2c(Cl)cccc2s1`, the CC50 with HEK293 is more than 10 µM. Besides, the MIC in the assay with Cryptococcus neoformans, in the assay with Staphylococcus aureus, in the assay with Escherichia coli, against Klebsiella pneumoniae, with Pseudomonas aeruginosa and in the assay on Acinetobacter baumannii was more than 10 µM in each case. In the assay with Candida albicans, this compound displayed an MIC of more than 10 µM.

As to `CC(=O)N1CCN(c2ccc(Oc3ccc(Cl)cc3O)cc2)CC1`, the CC50 in the assay on HEK293 is more than 10 µM. Moreover, the MIC against Cryptococcus neoformans, against Staphylococcus aureus, in the assay with Escherichia coli, in the assay on Klebsiella pneumoniae, against Pseudomonas aeruginosa and against Acinetobacter baumannii was more than 10 µM throughout. This compound also returned an MIC in the assay on Candida albicans of more than 10 µM.

As for `O=C([C@@H](c1ccc(Cl)cc1)c1cccnc1)N1CCN(c2ccc(C(F)(F)F)cc2)CC1`, the CC50 with HEK293 is more than 10 µM. Moreover, the MIC in the assay with Cryptococcus neoformans, against Staphylococcus aureus, in the assay with Escherichia coli, in the assay on Klebsiella pneumoniae, against Pseudomonas aeruginosa and in the assay on Acinetobacter baumannii was more than 10 µM each time. For the same compound, the MIC against Candida albicans is more than 10 µM.

On to `CCOC(=O)NC(=O)c1ccsc1NC(=O)c1nc2ccccc2s1`, for which, in the assay with HEK293, the CC50 is more than 10 µM. The MIC in the assay on Cryptococcus neoformans, in the assay with Staphylococcus aureus, against Escherichia coli, against Klebsiella pneumoniae, in the assay on Pseudomonas aeruginosa and against Acinetobacter baumannii was more than 10 µM throughout. For the same compound, in the assay on Candida albicans, the MIC was more than 10 µM.

With `Cc1nn2c(=O)c3c([nH]c2c1-c1ccc(Cl)cc1)CCCC3`, in the assay with HEK293, the CC50 was more than 10 µM. Moreover, the MIC against Cryptococcus neoformans, with Staphylococcus aureus, with Escherichia coli, with Klebsiella pneumoniae, against Pseudomonas aeruginosa and in the assay on Acinetobacter baumannii was more than 10 µM each time. The compound also came in with an MIC in the assay with Candida albicans of more than 10 µM.

As to `CC(c1cc(Cl)cc(Cl)c1)N(C)c1ncc2c(N)nc(N)nc2n1` (configuration not stated), the CC50 in the assay on HEK293 is more than 10 µM. Further, the MIC with Cryptococcus neoformans is more than 10 µM; in the assay with Staphylococcus aureus it was 10 µM (≈ 3.64 µg/mL); with Escherichia coli, more than 10 µM; with Klebsiella pneumoniae, more than 10 µM; in the assay on Pseudomonas aeruginosa it was more than 10 µM; in the assay on Acinetobacter baumannii it was more than 10 µM. The compound also displayed an MIC against Candida albicans of more than 10 µM.

Turning to `NC(CC(=O)c1ccc(Cl)cc1Cl)C(Cl)(Cl)Cl` (configuration not stated), in the assay on HEK293, the CC50 is more than 10 µM. Further, the MIC in the assay on Cryptococcus neoformans, with Staphylococcus aureus, with Escherichia coli, in the assay on Klebsiella pneumoniae, with Pseudomonas aeruginosa and against Acinetobacter baumannii was more than 10 µM in each case. This compound also displayed an MIC against Candida albicans of more than 10 µM.

Take `O=C1O[C@@H](CO)CN1c1cc(F)c(C2=CCN(Cc3ccccc3)CC2)c(F)c1`: the CC50 in the assay with HEK293 is more than 10 µM. Further, the MIC against Cryptococcus neoformans, against Staphylococcus aureus, in the assay on Escherichia coli, against Klebsiella pneumoniae, against Pseudomonas aeruginosa and in the assay on Acinetobacter baumannii was more than 10 µM each time. In the assay with Candida albicans, this compound had an MIC of more than 10 µM.

Regarding `COc1cccc(-n2nnnc2S(=O)(=O)Cc2ccccc2)c1`, the CC50 with HEK293 is more than 10 µM. Besides, the MIC against Cryptococcus neoformans, against Staphylococcus aureus, with Escherichia coli, in the assay on Klebsiella pneumoniae, with Pseudomonas aeruginosa and against Acinetobacter baumannii was more than 10 µM in each case. For the same compound, the MIC in the assay on Candida albicans is more than 10 µM.

In turn, `c1csc(-c2cnc3sc(NCC4CCOCC4)nn23)c1` showed a CC50 in the assay with HEK293 of more than 10 µM. The MIC in the assay on Cryptococcus neoformans, against Staphylococcus aureus, against Escherichia coli, in the assay on Klebsiella pneumoniae, in the assay on Pseudomonas aeruginosa and in the assay on Acinetobacter baumannii was more than 10 µM throughout. The same compound gave an MIC with Candida albicans of more than 10 µM.

Turning to `CCCn1c(NC(=O)c2ccc3ccccc3n2)nc2ccccc21`, the CC50 in the assay on HEK293 is more than 10 µM. Besides, the MIC against Cryptococcus neoformans, in the assay with Staphylococcus aureus, against Escherichia coli, against Klebsiella pneumoniae, with Pseudomonas aeruginosa and with Acinetobacter baumannii was more than 10 µM in each case. Moreover, the MIC in the assay on Candida albicans is more than 10 µM.

In the case of `NCCN(C(=O)c1ccc(Cl)cc1Cl)c1ccc(OCc2ccc(Cl)cc2)cc1`, in the assay on HEK293, the CC50 was more than 10 µM. The MIC with Cryptococcus neoformans is more than 10 µM; against Staphylococcus aureus, 10 µM (≈ 4.5 µg/mL); in the assay on Escherichia coli, more than 10 µM; in the assay with Klebsiella pneumoniae, more than 10 µM; against Pseudomonas aeruginosa, more than 10 µM; against Acinetobacter baumannii, more than 10 µM. The compound also displayed an MIC against Candida albicans of more than 10 µM.

On to `CO/N=C(\C(=O)OC)c1ccccc1CO/N=C(\C)c1cccc(C(F)(F)F)c1`, for which the CC50 with HEK293 was more than 10 µM. Further, the MIC in the assay on Cryptococcus neoformans, with Staphylococcus aureus, against Escherichia coli, against Klebsiella pneumoniae, with Pseudomonas aeruginosa and in the assay with Acinetobacter baumannii was more than 10 µM throughout. The compound also showed an MIC in the assay on Candida albicans of more than 10 µM.

In the assay on HEK293, `O=C(Nc1ccccc1)c1ccc(-c2cc3ccncc3cc2OC2CCNCC2)s1` had a CC50 of more than 10 µM. The MIC against Cryptococcus neoformans, in the assay on Staphylococcus aureus, against Escherichia coli, in the assay with Klebsiella pneumoniae, against Pseudomonas aeruginosa and against Acinetobacter baumannii was more than 10 µM each time. In the assay on Candida albicans, this compound returned an MIC of more than 10 µM.

With `Cc1nc(-c2ccccn2)nc(N(C)CCc2ccccc2)c1Cl`, the CC50 in the assay on HEK293 was more than 10 µM. For the same compound, the MIC in the assay with Cryptococcus neoformans, in the assay with Staphylococcus aureus, with Escherichia coli, with Klebsiella pneumoniae, with Pseudomonas aeruginosa and against Acinetobacter baumannii was more than 10 µM throughout. In the assay with Candida albicans, this compound came in with an MIC of more than 10 µM.

Take `Cc1nc(-c2ccccn2)nc(N2CCC(Cc3ccccc3)C2)c1Cl` (configuration not stated): the CC50 in the assay with HEK293 is more than 10 µM. The MIC with Cryptococcus neoformans was not above 0.0781 µM; in the assay on Staphylococcus aureus it was more than 10 µM; against Escherichia coli it was more than 10 µM; against Klebsiella pneumoniae it was more than 10 µM; against Pseudomonas aeruginosa, more than 10 µM; with Acinetobacter baumannii, more than 10 µM. The compound also had an MIC with Candida albicans of 0.156 µM (≈ 0.057 µg/mL).

In the case of `COc1cc(C2=NCCN2)cc2cc(-c3ccc(C4=NCCN4)cc3)oc12`, in the assay on HEK293, the CC50 was more than 10 µM. The MIC in the assay with Cryptococcus neoformans, with Staphylococcus aureus, with Escherichia coli, in the assay on Klebsiella pneumoniae, in the assay on Pseudomonas aeruginosa and in the assay with Acinetobacter baumannii was more than 10 µM throughout. The MIC against Candida albicans was more than 10 µM.

In the assay on HEK293, `COc1ccc(OC)c(NCc2ccc3nc(N)nc(N)c3c2Cl)c1` showed a CC50 of more than 10 µM. Moreover, the MIC was more than 10 µM against Cryptococcus neoformans; 0.625 µM (≈ 0.225 µg/mL) in the assay on Staphylococcus aureus; 2.5 µM (≈ 0.9 µg/mL) with Escherichia coli; 10 µM (≈ 3.6 µg/mL) against Klebsiella pneumoniae; 2.5 µM (≈ 0.9 µg/mL) against Pseudomonas aeruginosa; more than 10 µM in the assay on Acinetobacter baumannii. The same compound yielded an MIC against Candida albicans of more than 10 µM.
